Here are results for six molecules from patent publication US20040266864A1, “Methods for treating depression and other CNS disorders using enantiomerically enriched desmethyl-and didesmethyl-metabolites of citalopram” (Sepracor Inc., priority 2001, published 2004).

The target of one series is T1, NE uptake (Rattus norvegicus, UniProt Q63380).
T1 construct: norepinephrine (NE) and dopamine into similarly prepared synaptosomes; from tissue; host or cells: rat brain synaptosomes
The series can be described thus: Inhibition of norepinephrine reuptake into rat brain synaptosomes. It is filed as biochemical. To be noted: functional monoamine uptake.

Series [1] concerns receptors for various neurotransmitters, enzymes, other reuptake sites. To be noted: acetylcholine, histamine, norepinephrine, dopamine receptors, monoamine oxidase; cited from earlier work.
The test system of the next series is cytochrome P450 enzymes. To be noted: P450 4A, 2C19, 2D6, 1A2, 2C9, 2E1; cited from earlier work.
The next series has as its target T2, DA uptake (Rattus norvegicus, UniProt P23977).
T2 construct: norepinephrine (NE) and dopamine into similarly prepared synaptosomes; from tissue; host or cells: rat brain synaptosomes
As to the kind of experiment: Inhibition of dopamine reuptake into rat brain synaptosomes. It is filed as biochemical. To be noted: functional monoamine uptake.

The target in series [2] is 5-HT Transporter (Rattus norvegicus, UniProt P31652). As to the kind of experiment: Rat 5-HT transporter IC50/Ki. The series is classed as binding.
5-HT Transporter (Rattus norvegicus, UniProt P31652), sequence (P31652 whole entry): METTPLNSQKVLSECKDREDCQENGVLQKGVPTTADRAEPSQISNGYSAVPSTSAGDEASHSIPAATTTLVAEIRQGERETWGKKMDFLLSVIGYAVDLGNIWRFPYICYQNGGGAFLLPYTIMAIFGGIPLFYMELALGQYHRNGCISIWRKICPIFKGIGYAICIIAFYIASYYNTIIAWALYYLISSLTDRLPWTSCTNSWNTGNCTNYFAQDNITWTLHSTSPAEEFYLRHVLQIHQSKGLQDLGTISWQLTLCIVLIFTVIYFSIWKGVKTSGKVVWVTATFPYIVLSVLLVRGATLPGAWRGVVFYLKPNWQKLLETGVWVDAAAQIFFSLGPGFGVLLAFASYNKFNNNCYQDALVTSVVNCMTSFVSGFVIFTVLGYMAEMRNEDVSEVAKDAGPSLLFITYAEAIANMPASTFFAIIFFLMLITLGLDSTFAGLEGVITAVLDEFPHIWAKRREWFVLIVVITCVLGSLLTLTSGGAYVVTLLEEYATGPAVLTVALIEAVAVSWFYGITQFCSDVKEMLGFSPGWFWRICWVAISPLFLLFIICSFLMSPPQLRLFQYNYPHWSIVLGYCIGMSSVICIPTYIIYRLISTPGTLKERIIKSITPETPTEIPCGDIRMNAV
A further series has as its target T3, 5-HT uptake (Rattus norvegicus, UniProt P31652).
T3 construct: synaptosomes prepared from various regions of rat brains; from tissue; host or cells: rat brain synaptosomes
The series can be described thus: Inhibition of reuptake of radiolabeled serotonin into rat brain synaptosomes. The series is classed as biochemical. The note with it: functional monoamine uptake.

In a further series the target is NE Transporter (Homo sapiens, UniProt P23975). The series can be described thus: Human NE transporter IC50/Ki. It is filed as binding.
NE Transporter, sequence (P23975 whole entry): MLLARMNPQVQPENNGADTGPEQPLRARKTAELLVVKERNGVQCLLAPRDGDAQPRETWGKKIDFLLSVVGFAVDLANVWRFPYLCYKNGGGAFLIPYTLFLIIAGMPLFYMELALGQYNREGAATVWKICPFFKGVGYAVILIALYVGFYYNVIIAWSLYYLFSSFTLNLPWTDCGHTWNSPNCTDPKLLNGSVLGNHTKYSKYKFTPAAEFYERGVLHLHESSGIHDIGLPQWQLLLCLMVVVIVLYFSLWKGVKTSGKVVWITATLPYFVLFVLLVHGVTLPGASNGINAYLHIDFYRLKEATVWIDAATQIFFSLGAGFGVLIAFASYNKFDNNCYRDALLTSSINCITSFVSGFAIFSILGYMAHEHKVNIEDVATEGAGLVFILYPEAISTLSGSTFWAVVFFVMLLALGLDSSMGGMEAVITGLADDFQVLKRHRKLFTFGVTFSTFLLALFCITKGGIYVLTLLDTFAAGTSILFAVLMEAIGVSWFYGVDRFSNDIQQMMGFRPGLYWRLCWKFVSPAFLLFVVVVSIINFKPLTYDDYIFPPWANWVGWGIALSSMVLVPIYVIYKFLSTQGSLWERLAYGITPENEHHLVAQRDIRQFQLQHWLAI
The target of a further series is DA Transporter (Homo sapiens, UniProt Q01959). The series is classed as binding.
DA Transporter, sequence (Q01959 whole entry): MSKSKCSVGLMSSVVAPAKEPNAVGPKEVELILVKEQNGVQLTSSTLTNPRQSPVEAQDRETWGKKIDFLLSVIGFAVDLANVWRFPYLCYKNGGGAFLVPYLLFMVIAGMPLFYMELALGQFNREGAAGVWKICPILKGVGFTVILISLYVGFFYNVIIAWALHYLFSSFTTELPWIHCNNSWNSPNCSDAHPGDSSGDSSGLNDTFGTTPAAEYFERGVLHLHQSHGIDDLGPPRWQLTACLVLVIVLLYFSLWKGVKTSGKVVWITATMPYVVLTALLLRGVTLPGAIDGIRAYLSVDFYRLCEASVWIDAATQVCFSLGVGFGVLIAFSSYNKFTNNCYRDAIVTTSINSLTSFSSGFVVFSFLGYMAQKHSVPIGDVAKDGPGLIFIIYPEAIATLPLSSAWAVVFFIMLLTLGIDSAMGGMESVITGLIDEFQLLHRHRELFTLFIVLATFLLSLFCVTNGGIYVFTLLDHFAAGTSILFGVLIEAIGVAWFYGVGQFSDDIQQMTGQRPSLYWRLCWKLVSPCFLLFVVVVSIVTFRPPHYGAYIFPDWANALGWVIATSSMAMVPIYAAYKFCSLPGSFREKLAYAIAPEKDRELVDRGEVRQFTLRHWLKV
Series [3] has as its target 5-HT Transporter (Homo sapiens, UniProt P31645). It is filed as binding.
For series [4] the following is noted: Sanchez and Hyttel 1999; cited from earlier work.

5-HT Transporter (Homo sapiens, UniProt P31645), sequence (P31645 whole entry): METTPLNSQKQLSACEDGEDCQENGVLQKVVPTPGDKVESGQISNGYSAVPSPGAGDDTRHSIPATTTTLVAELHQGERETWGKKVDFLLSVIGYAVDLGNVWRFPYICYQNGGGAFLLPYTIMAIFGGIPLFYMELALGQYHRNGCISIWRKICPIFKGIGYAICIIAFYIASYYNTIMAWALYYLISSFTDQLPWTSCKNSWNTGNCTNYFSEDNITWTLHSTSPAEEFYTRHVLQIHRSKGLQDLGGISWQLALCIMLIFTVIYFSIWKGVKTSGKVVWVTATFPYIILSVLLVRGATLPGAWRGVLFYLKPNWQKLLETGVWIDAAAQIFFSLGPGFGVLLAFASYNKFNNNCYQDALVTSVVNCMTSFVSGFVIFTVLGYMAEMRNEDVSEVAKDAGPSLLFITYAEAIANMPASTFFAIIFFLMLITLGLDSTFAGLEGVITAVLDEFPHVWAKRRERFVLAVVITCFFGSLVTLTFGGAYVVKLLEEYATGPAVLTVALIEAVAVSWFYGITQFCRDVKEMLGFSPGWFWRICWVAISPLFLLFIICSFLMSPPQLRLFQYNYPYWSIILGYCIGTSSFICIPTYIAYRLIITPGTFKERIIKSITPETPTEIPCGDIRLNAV
T1 sequence (Q63380 1-617): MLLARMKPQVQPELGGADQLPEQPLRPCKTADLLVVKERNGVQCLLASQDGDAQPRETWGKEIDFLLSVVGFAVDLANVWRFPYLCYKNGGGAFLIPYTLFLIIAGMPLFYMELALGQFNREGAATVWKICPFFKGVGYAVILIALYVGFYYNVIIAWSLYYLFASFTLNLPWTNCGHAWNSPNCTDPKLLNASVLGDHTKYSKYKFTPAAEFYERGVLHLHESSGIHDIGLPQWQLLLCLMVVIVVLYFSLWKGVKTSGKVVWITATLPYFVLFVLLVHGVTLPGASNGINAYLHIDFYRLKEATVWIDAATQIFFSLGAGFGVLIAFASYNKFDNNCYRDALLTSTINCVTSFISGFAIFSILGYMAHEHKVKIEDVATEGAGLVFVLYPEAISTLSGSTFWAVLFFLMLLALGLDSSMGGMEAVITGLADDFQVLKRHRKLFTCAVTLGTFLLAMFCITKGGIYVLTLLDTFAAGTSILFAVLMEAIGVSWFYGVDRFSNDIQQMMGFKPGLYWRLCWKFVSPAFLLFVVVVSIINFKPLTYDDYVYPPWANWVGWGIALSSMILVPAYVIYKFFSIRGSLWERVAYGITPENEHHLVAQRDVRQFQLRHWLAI
T3 sequence (P31652 whole entry): as the sequence (P31652 whole entry) above
T2 sequence (P23977 whole entry): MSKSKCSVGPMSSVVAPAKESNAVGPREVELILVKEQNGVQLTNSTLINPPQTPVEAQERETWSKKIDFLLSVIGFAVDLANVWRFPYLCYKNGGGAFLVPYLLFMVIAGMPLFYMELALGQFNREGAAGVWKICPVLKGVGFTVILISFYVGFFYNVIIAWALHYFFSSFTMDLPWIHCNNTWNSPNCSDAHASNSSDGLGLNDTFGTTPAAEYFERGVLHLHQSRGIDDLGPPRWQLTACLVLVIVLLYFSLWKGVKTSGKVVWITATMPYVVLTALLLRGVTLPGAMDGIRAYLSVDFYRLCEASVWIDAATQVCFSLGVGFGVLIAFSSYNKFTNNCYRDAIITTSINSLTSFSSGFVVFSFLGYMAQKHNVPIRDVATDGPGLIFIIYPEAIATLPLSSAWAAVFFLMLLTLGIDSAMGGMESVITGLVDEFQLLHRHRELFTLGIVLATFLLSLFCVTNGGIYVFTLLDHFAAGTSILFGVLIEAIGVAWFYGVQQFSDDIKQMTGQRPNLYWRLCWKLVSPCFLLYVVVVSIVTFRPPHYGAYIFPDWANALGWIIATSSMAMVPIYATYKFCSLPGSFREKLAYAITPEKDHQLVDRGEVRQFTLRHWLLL

By IC50 is commonly meant the point on the concentration scale where inhibition reaches its midpoint. Read a high IC50 as weaker potency. Turning to `CN(C)CCCC1(c2ccc(F)cc2)OCc2cc(C#N)ccc21` (racemic) [Racemic Citalopram, (±)-1-(3-dimethylaminopropyl)-1-(4-fluorophenyl)-1,3-dihydroisobenzofuran-5-carbonitrile, reference compound], the IC50 against NE uptake was found to be 4.9 µM. Moreover, the “affinity for neurotransmitter receptors, enzymes and other reuptake sites” value in series [1] is “negligible affinity”. The “inhibition of cytochrome P450 enzyme activity (not by more than)” value in the series on cytochrome P450 enzymes was “mild degree”.

With `CNCCCC1(c2ccc(F)cc2)OCc2cc(C#N)ccc21` (racemic) [desmethylcitalopram, (±)-1-(3-methylaminopropyl)-1-(4-fluorophenyl)-1,3-dihydroisobenzofuran-5-carbonitrile], in the series on cytochrome P450 enzymes, the “inhibition of cytochrome P450 enzyme activity (not by more than)” value is recorded as “mild degree”.

The term Ki denotes a dissociation constant, usually derived from enzyme kinetics or from competition with a known ligand. Regarding `CNCCCC1(c2ccc(F)cc2)OCc2cc(C#N)ccc21` (single isomer, unassigned; (+)) [(+)-Desmethylcitalopram], the IC50 at DA uptake was 7.6 µM; against NE uptake, 4.1 µM; against 5-HT Transporter [2], 1.3 nM; at 5-HT uptake it was 5.8 nM; against NE Transporter, 10.3 µM; at DA Transporter, 27.7 µM. Moreover, the Ki is 0.27 nM on 5-HT Transporter [2], 9.57 µM at NE Transporter and 12.7 µM on DA Transporter.

Take `N#Cc1ccc2c(c1)COC2(CCCN)c1ccc(F)cc1` (single isomer, unassigned; (+)) [(+)-Didesmethylcitalopram]: the IC50 at DA uptake came to 11 µM; on NE uptake it was 3.3 µM; against 5-HT Transporter [3], 219 nM; against 5-HT Transporter [2], 19 nM; on 5-HT uptake it was 180 nM; at NE Transporter, 24.2 µM. The IC50 at DA Transporter is 54.7 µM. For the same molecule, the Ki was 90 nM on 5-HT Transporter [3], 3.9 nM on 5-HT Transporter [2], 22.4 µM on NE Transporter and 25 µM at DA Transporter. Moreover, in series [4], the “half-lives compared to citalopram” value is given as “measurably longer”.

Take `N#Cc1ccc2c(c1)COC2(CCCN)c1ccc(F)cc1` (single isomer, unassigned; (-)) [(−)-Didesmethylcitalopram]: the IC50 on DA uptake stood at 2.7 µM; against NE uptake, 1.3 µM; against 5-HT Transporter [3], 14 nM; at 5-HT Transporter [2] it was 27 nM; on 5-HT uptake, 130 nM; against NE Transporter, 5.52 µM. On DA Transporter, it took 38.9 µM to reach half-maximal inhibition (IC50). For the same molecule, the Ki at 5-HT Transporter [3] came out at 5.8 nM; at 5-HT Transporter [2] it was 5.5 nM; on NE Transporter, 5.12 µM; at DA Transporter, 17.8 µM. In addition, the “half-lives compared to citalopram” value in series [4] was “measurably longer”.

Turning to (−)-Desmethylcitalopram, the IC50 against DA uptake came to 9.4 µM; against NE uptake, 1.7 µM; against 5-HT Transporter [3], 42 nM; at 5-HT Transporter [2], 11 nM; on 5-HT uptake, 110 nM; against NE Transporter, 0.815 µM. For the same molecule, half-maximal inhibition against DA Transporter (IC50) was put at 37.6 µM. Moreover, the Ki at 5-HT Transporter [3] came to 17 nM; on 5-HT Transporter [2] it was 2.3 nM; at NE Transporter, 0.756 µM; on DA Transporter, 17.1 µM. Moreover, the “half-lives compared to citalopram” value in series [4] is given as “measurably longer”.
